How the values were obtained:
Myzus persicae, US1L [1] = assay: Glasshouse simulator trial: M. persicae protein on pepper plants treated with cis-jasmone and PBO; assay type: in vivo; conditions: for μg (Av) Total Protein (M. persicae): simulator, 25 pepper plants per treatment, three adult apterous aphids per plant, 7 days
Experimental: (§1) In all bioassay experiments the control plants were sprayed with deionised water. Initially seven treatments were used (Table 1) to test all chemical variables. All treatments were applied hydraulically with a spray simulator after which the plants were separated according to treatment (with cis-jasmone controls being separated) and left for 2 hours prior to insect application.
(§2) Analysis of protein in each treatment was conducted using Bradford Reagent: the data were analysed using the computer programme ‘GraFit’ (Erithacus software, Berkeley). To calculate the calibration curve a single logarithmic curve was used with regression analysis taking the values of the treatment wells (averages of the three readings taken: technical replicates).
To investigate developmental/fecundity effects of cis-jasmone+/−PBO (see Table 1) on Myzus persicae when applied to sweet peppers, adults were added to the plants and then using Bradford reagent, the amount of aphid protein present on the plants 7 days after treatment was measured. Esterase levels were also tested after the same interval to check for the possible induction of metabolic enzymes when using cis-jasmone. Aphids were brushed from all plants and each leaf checked individually to ensure none remained. The aphid mass for each treatment was weighed before total protein was assessed (total from all […] plants in the treatment).
Myzus persicae were applied to sweet peppers at the rate of three adults per plant. Aphids were brushed from all plants and each leaf checked individually to ensure none remained. The aphid mass for each treatment was assessed for total protein (total from all 25 plants in the treatment) using Bradford reagent. The amount of aphid protein present on the plants 7 days after treatment was measured. Plants were put into glasshouse simulators (one/treatment) and kept at 28° C., 12 L: […] and 80% R.H.

Myzus persicae, US1L [2] = assay: Bioassay: M. persicae protein on four pepper plants treated with cis-jasmone and PBO (1, 5 or 10 adults per plant); assay type: in vivo; conditions: for Av. Total Insect Protein μg: Bioassay, M. persicae (US1L), average of weeks 1 to 3; for μg (Av) Total Protein (M. persicae): four pepper plants, 7 days
Experimental: as §1
Analysis of protein in each treatment was conducted using Bradford Reagent: the data were analysed using the computer programme ‘GraFit’ (Erithacus software, Berkeley). To calculate the calibration curve a single logarithmic curve was used with regression analysis taking the values of the treatment wells (averages of the three readings taken: technical replicates). […]
To investigate developmental/fecundity effects of cis-jasmone+/−PBO E on Myzus persicae when applied to sweet peppers, one adult was added to the plants. Aphids were brushed from all plants and each leaf checked individually to ensure none remained. The aphid mass for each treatment was assessed for total protein (total from all four plants in the treatment) using Bradford reagent. The amount of aphid protein present on the plants 7 days after treatment was measured.
Myzus persicae was applied to sweet peppers at the rate of five adults were added per plant. Aphids were brushed from all plants and each leaf checked individually to ensure none remained. The aphid mass for each treatment was assessed for total protein (total from all four plants in the treatment) using Bradford reagent. The amount of aphid protein present on the plants 7 days after treatment was measured (for further information see Example 3).
Myzus persicae were applied to sweet peppers at the rate of ten adults per plant. Aphids were brushed from all plants and each leaf checked individually to ensure none remained. The aphid mass for each treatment was assessed for total protein (total from all four plants in the treatment) using Bradford reagent. The amount of aphid protein present on the plants 7 days after treatment was measured (for further information see Example 3).

Bemisia tabaci, GUA MIX [3] = assay: Glasshouse simulator trial: B. tabaci pupae protein on tomato plants treated with cis-jasmone and PBO; assay type: in vivo; conditions: for μg (Av) Total Protein (B. tabaci pupae): simulator, ten tomato plants per treatment, ten adult whiteflies per plant, ~16 days
Experimental: as §1, §2
(§3) A new method for the investigation of the development of whitefly to the pupal stage on tomatoes and cotton was used. […] These were checked for protein after ˜16 days using Bradford reagent.
(§4) Adults were added to the plant 2 h after treatment, and removed after 24 h. The eggs laid were then left for 16-18 days until they reached the pupal stage. The total pupal protein on the plant was tested using the Bradford reagent.
As described above 10 adult females were released on to each tomato plant, ten/treatment and after ˜16 days pupae were removed using a scalpel blade. These were checked for total protein using Bradford reagent. Plants were put into glasshouse simulators (one/treatment) and kept at 28° C., 12 L: […] and 80% R.H.

whitefly (B. tabaci) = assay: Bioassay: B. tabaci pupae protein on cotton and tomato plants treated with BABA and/or PBO; assay type: in vivo, Bemisia tabaci; conditions: 3 mM BABA root drench, PBO E spray
Experimental: In all bioassay experiments the control plants were sprayed with deionised water. Initially seven treatments were used (Table 1b) to test all chemical variables. […] Analysis of protein in each treatment was conducted using Bradford Reagent: the data were analysed using the computer programme ‘GraFit’ (Erithacus software, Berkeley). To calculate the calibration curve a single logarithmic curve was used with regression analysis taking the values of the treatment wells (averages of the three readings taken: technical replicates). Laboratory tests were undertaken to compare effects of combined and single treatments of PBO and BABA on control of aphid (M. persicae) on potato, pepper, and black mustard and whitefly (B. tabaci) on cotton and tomato. All tests included untreated and blank (water) controls, and both single and combined applications of PBO and BABA. […] Adults were added to the plant 2 days after treatment, and removed after 24 h. The eggs laid were then left for 16-18 days until they reached the pupal stage. The total pupal protein on the plant was tested using the Bradford reagent.

esterase [4] = conditions: topical application of 1 ul of 0.1% PBO
Experimental: The esterase activity of individuals from a clone of resistant Myzus persicae was measured at zero time, then at hourly intervals following in vivo topical application of 1 ul of 0.1% PBO. […] The assay would also be continued to determine the time taken for the esterase levels to return to normal.

Aphis gossypii = assay: A. gossypii protein on cotton plants treated with propyl gallate and cis-jasmone; assay type: in vivo; conditions: five cotton plants, 3 adult apterous aphids per plant, 7 days
B. tabaci = B. tabaci pupae protein on cotton plants treated with PBO and/or microencapsulated cis-jasmone; assay type: in vivo, Bemisia tabaci; conditions: for Protein WF (Av): five cotton plants per treatment, 5 adult female whiteflies per plant, ~16 days
Experimental: as §3, §4

Bemisia tabaci, GUA MIX [5] = assay: Bioassay: B. tabaci pupae protein on one tomato plant treated with cis-jasmone and PBO; assay type: in vivo; conditions: for μg (Av) Total Protein (B. tabaci pupae): one tomato plant, ten adult whiteflies, ~16 days
Experimental: as §1, §2, §3, §4

esterase [6] = test system: esterase

CCCCOCCOCCOCc1cc2c(cc1CCC)OCO2 [PBO, 2-(2-butoxyethoxy)ethyl 6-propylpiperonyl ether]
effect of addition of PBO to cis jasmone on efficacy (in words) (Myzus persicae, US1L [1]; M. persicae on pepper, simulator trial): does not significantly increase efficacy | Av. Total Insect Protein μg (Myzus persicae, US1L [1]; Simulator, M. persicae (US1L) on Pepper (BellBoy), average of weeks 1 to 3): 14.406 µg | μg (Av) Total Protein (M. persicae) (Myzus persicae, US1L [1]; week 1): 14.72 µg | μg (Av) Total Protein (M. persicae) (Myzus persicae, US1L [1]; week 2): 14.2 µg | μg (Av) Total Protein (M. persicae) (Myzus persicae, US1L [1]; week 3): 14.3 µg | Av. Total Insect Protein μg (Myzus persicae, US1L [2]; 1 adult/plant): 10.710 µg | Av. Total Insect Protein μg (Myzus persicae, US1L [2]; 5 adults/plant): 21.500 µg | Av. Total Insect Protein μg (Myzus persicae, US1L [2]; 10 adults/plant): 35.200 µg | effect of addition of PBO to cis-jasmone on reduction of insect protein (in words) (Myzus persicae, US1L [2]; M. persicae on pepper, five adults per plant): potentiates the effect of cis-jasmone | reduction in total aphid protein (in words) (Myzus persicae, US1L [2]; M. persicae on pepper, small scale assays, 10, 5 or 1 adult aphid per plant): no significant reduction | μg (Av) Total Protein (M. persicae) (Myzus persicae, US1L [2]; five adult apterous aphids per plant, week 1): 23.60 µg | μg (Av) Total Protein (M. persicae) (Myzus persicae, US1L [2]; five adult apterous aphids per plant, week 2): 17.29 µg | μg (Av) Total Protein (M. persicae) (Myzus persicae, US1L [2]; five adult apterous aphids per plant, week 3): 23.60 µg | μg (Av) Total Protein (M. persicae) (Myzus persicae, US1L [2]; one adult apterous aphid per plant, week 1): 13.64 µg | μg (Av) Total Protein (M. persicae) (Myzus persicae, US1L [2]; one adult apterous aphid per plant, week 2): 8.50 µg | μg (Av) Total Protein (M. persicae) (Myzus persicae, US1L [2]; one adult apterous aphid per plant, week 3): 10.01 µg | μg (Av) Total Protein (M. persicae) (Myzus persicae, US1L [2]; ten adult apterous aphids per plant, week 1): 38.91 µg | μg (Av) Total Protein (M. persicae) (Myzus persicae, US1L [2]; ten adult apterous aphids per plant, week 2): 33.2 µg | μg (Av) Total Protein (M. persicae) (Myzus persicae, US1L [2]; ten adult apterous aphids per plant, week 3): 33.5 µg | effect of addition of PBO to cis-jasmone on reduction of insect protein (in words) (Bemisia tabaci, GUA MIX [3]; B. tabaci on tomato, simulator trial): potentiates the effect of cis-jasmone | Av. Total Insect Protein μg (Bemisia tabaci, GUA MIX [3]; Simulator, Bemisia tabaci (GUA MIX) on Tomato (Carousel), average of weeks 1 to 3): 0.156 µg | μg (Av) Total Protein (B. tabaci pupae) (Bemisia tabaci, GUA MIX [3]; week 1): 0.165 µg | μg (Av) Total Protein (B. tabaci pupae) (Bemisia tabaci, GUA MIX [3]; week 2): 0.169 µg | μg (Av) Total Protein (B. tabaci pupae) (Bemisia tabaci, GUA MIX [3]; week 3): 0.134 µg | Protein WF (Av) (whitefly (B. tabaci); cotton plants, ~16 days, week 1): 0.14 µg | Protein WF (Av) (whitefly (B. tabaci); cotton plants, ~16 days, week 2): 0.14 µg | Protein WF (Av) (whitefly (B. tabaci); cotton plants, ~16 days, week 3): 0.15 µg | Protein WF (Av) (whitefly (B. tabaci); tomato plants, week 1): 0.23 µg | Protein WF (Av) (whitefly (B. tabaci); tomato plants, week 2): 0.33 µg | Protein WF (Av) (whitefly (B. tabaci); tomato plants, week 3): 0.32 µg | time delay for esterase inhibition (esterase [4]; individual cotton bollworms): 5 h | optimal time delay for esterase inhibition (esterase [4]; individual whiteflies): 10 h | Protein A (Av) (Aphis gossypii; week 1): 20.05 µg | Protein A (Av) (Aphis gossypii; week 2): 15.1 µg | Protein A (Av) (Aphis gossypii; week 3): 16.3 µg | effect of addition of PBO to microencapsulated cis-jasmone (in words) (B. tabaci; B. tabaci on cotton): potentiates the effect of this new microencapsulated cis-jasmone | Protein WF (Av) (B. tabaci; week 1): 0.167 µg | Protein WF (Av) (B. tabaci; week 2): 0.16 µg | Protein WF (Av) (B. tabaci; week 3): 0.17 µg | effect of adding PBO to the cis-jasmone treatment (in words) (Bemisia tabaci, GUA MIX [5]; B. tabaci on tomato, bioassay): clear and highly significant (p<0.001) synergistic effect | Av. Total Insect Protein μg (Bemisia tabaci, GUA MIX [5]; Bioassay, Bemisia tabaci (GUA MIX), average of weeks 1 to 3): 0.419 µg | μg (Av) Total Protein (B. tabaci pupae) (Bemisia tabaci, GUA MIX [5]; week 1): 0.28 µg | μg (Av) Total Protein (B. tabaci pupae) (Bemisia tabaci, GUA MIX [5]; week 2): 0.28 µg | μg (Av) Total Protein (B. tabaci pupae) (Bemisia tabaci, GUA MIX [5]; week 3): 0.3 µg | optimal concentration of PBO for esterase inhibition (esterase [6]): 1000 ppm
